Measurements as given in PubChem BioAssay AID434996 (Southern Research Specialized Biocontainment Screening …, 2010).
The source made the active and inactive calls.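 Rule for the calls: active = inhibition above 30% at one or more tested concentrations in the dose response; inactive = inhibition below 30% at every tested concentration.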

How the values were obtained:
[1] = PhoP-dependent GFP reporter suppression – synthesized compounds, round 3, SAR follow-up (AID 434996); settings: S. Typhimurium PhoP-regulated promoter GFP reporter, 4 h; at 150 µM (top of the series)
[2] = system: S. Typhimurium PhoP-regulated promoter GFP reporter, 4 h; assay: as above

IC50 [2] [µM]	SMILES	inhibition [1]
	Cc1ccc(NC(=O)N2CCCN(Cc3ccccc3F)C2)cc1	-3.01% (inactive)
	O=C(Nc1cccc(I)c1)N1CCCN(Cc2ccccc2F)C1	20.6% (inactive)
29.2	S=C(NCCc1ccc(Cl)cc1)Nc1ccncc1	
	N#Cc1ccccc1NC(=S)NCc1ccc(Cl)cc1	-0.55% (inactive)
	Cc1ccccc1CNC(=S)Nc1ccncc1	15.3% (inactive)
	O=C(Nc1cccc(C(F)(F)F)c1)N1CCCN(Cc2ccccc2F)C1	8.93% (inactive)
	N#Cc1ccc(NC(=S)NCc2ccc(Cl)cc2)cc1	-4.09% (inactive)
	Cc1cccc(NC(=O)N2CCCN(Cc3ccccc3F)C2)c1	21.2% (inactive)
148	O=C(Nc1ccc(I)cc1)N1CCCN(Cc2ccccc2F)C1	
	O=C(Nc1cccc(F)c1)N1CCCN(Cc2ccccc2F)C1	23.5% (inactive)
135	O=C(Nc1ccc(Cl)cc1)N1CCCN(Cc2ccc(Br)cc2)C1	
	O=C(Nc1ccc(Cl)cc1)N1CCCN(Cc2ccccc2Br)C1	26.3% (inactive)
